This is an account of results in patent US8921307B2, “Synthetic linear apelin mimetics for the treatment of heart failure” (priority 2012, dated 2014).

The structures appear in SMILES notation. Where a SMILES comes first, the peptide text is derived from it. [ ]: non-standard residue; d: D form. Cha = N[C@@H](CC1CCCCC1)C(=O)O; pGlu = O=C1CC[C@@H](C(=O)O)N1; dNle = CCCC[C@@H](N)C(=O)O; dNva = CCC[C@@H](N)C(=O)O; Aib = CC(C)(N)C(=O)O

Data set [1] can be described thus: Plasma Stability Assay (LC-MS). It is filed as in vitro ADME. Particulars: male, Sprague-Dawley, rat. As for the experimental part:
Plasma Stability Assay: Materials: Working solution: 1 mg/mL test article is prepared in Milli-Q water Extraction solution: Methanol:Acetonitrile:Water (1:1:1) with 0.1% Formic Acid and 400 ng/mL Glyburide. Plasma: Male Sprague-Dawley rat plasma (with sodium heparin), purchased from Bioreclamation LLC (Liverpool, N.Y.). Test article was prepared in one of the following biological matrices: heparinized rat plasma, heparinized rat whole blood or lung homogenate. […] Lung homogenate samples were prepared by diluting lung homogenate to 1 mg/ml protein concentration with phosphate buffered saline (PBS), followed by addition of 5 uL Working solution to 995 uL diluted lung homogenate. The samples were incubated at 37° C. with gentle shaking (65˜75 rpm) in a water bath incubator. […] Afterwards, a pipetting device (Tecan Temo) was used to tranfer the supernatants to another plate and add 50 uL of water to all samples. The plate was vortexed prior to LC-MS analysis. LC-MS Analysis of stability samples HPLC: Agilent 1290 HPLC with autosampler Column: MAC-MOD ACE C18, 3 μm, 30 mm×2.1 mm i.d. Mobile phase A: 0.1% Formic acid in acetonitrile Mobile phase B: 0.1% Formic acid in water Gradient Program: [table]

Data set [2] is described as follows: Surrogate Activity-Based Plasma Stability Assay. The format is in vitro ADME. The following applies: rat. As for the experimental part: Stability half-life was then calculated by the formula, t½=0.693÷k Surrogate Activity-Based Plasma Stability Assay: […]
2) Calculate slope of value above and […]

The target in data set [3] is T1, hAPJ (Homo sapiens, UniProt P35414).
T1 sequence (P35414 1-380): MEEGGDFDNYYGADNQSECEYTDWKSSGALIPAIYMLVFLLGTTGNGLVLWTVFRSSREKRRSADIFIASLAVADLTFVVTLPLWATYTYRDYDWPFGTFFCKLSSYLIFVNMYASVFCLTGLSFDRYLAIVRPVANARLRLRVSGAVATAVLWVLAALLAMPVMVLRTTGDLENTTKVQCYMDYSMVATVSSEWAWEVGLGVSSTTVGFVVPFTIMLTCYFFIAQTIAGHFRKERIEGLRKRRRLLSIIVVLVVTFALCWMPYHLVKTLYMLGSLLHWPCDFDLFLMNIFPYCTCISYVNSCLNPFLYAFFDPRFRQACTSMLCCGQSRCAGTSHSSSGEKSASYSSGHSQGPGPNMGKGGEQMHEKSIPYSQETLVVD
The experiment in a line: hAPJ Calcium Flux Assay. The format is cell-based. The following applies: Chem-5 APJ stable cells, FLIPR calcium flux stimulation; read-out: hAPJ Ca^2+ Flux EC50. In outline: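 Chem-5 cells stably expressing APJ, loaded 1 h with Calcium 4 dye plus 2.5 mM probenecid at 37 °C. Peptides added at final […] in HBSS/HEPES/0.1% BSA, in triplicate.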

The mark [4] stands for this setting: Surrogate Activity based Plasma stability t½.
The mark [5] stands for this setting: Surrogate activity-based Plasma stability t½.

For orientation: half-life means the time needed for the level to fall by half in the phase considered. One may read the EC50 as the concentration that produces a half-maximal response. With `CCCC[C@@H](NC(=O)[C@@H]1CCCN1C(=O)CNC(=O)[C@H](CCCCN)NC(=O)C(C)(C)NC(=O)[C@H](CO)NC(=O)[C@@H](CC(C)C)NC(=O)[C@H](CCCNC(=N)N)NC(=O)[C@@H]1CCCN1C(=O)[C@H](CCCNC(=N)N)NC(=O)[C@@H]1CCC(=O)N1)C(=O)N[C@H](C)C(=O)N[C@H](Cc1ccccc1)C(=O)O` [Example 4, pE-R-P-R-(D-Leu)-S-Aib-K-G-P-nle-a-f-OH] ([pGlu]RPR[dL]S[Aib]KGP[dNle][dA][dF]-OH), the half-life at 5000 ng/mL in data set [1] is 6.9 h. In addition, the half-life in data set [2] (setting [4]) and in data set [2] (setting [5]) was 12.2 h throughout. Also, the EC50 in data set [3] was determined as 5 nM.
As for `CCCC[C@@H](NC(=O)[C@@H]1CCCN1C(=O)CNC(=O)[C@H](CCCCN)NC(=O)[C@H](Cc1c[nH]cn1)NC(=O)[C@@H](C)NC(=O)[C@H](CC(C)C)NC(=O)[C@H](CCCNC(=N)N)NC(=O)[C@@H]1CCCN1C(=O)[C@H](CCCNC(=N)N)NC(=O)[C@@H]1CCC(=O)N1)C(=O)N[C@H](CC(C)C)C(=O)N[C@H](Cc1ccccc1)C(=O)O` [Example 14, pE-R-P-R-L-a-H-K-G-P-nle-(D-Leu)-f-OH] ([pGlu]RPRL[dA]HKGP[dNle][dL][dF]-OH), the half-life at 5000 ng/mL in data set [1] turned out to be 6.75 h. Moreover, the half-life in data set [2] (setting [4]) and in data set [2] (setting [5]) was 3.08 h each time. In addition, the EC50 in data set [3] came to 3.2 nM.
The compound `CCCC[C@@H](NC(=O)[C@@H]1CCCN1C(=O)CNC(=O)[C@H](CCCCN)NC(=O)[C@H](Cc1c[nH]cn1)NC(=O)[C@@H](C)NC(=O)[C@H](CC(C)C)NC(=O)[C@H](CCCNC(=N)N)NC(=O)[C@@H]1CCCN1C(=O)[C@H](CCCNC(=N)N)NC(=O)[C@@H]1CCC(=O)N1)C(=O)N[C@H](C)C(=O)N[C@H](Cc1ccccc1)C(=O)O` [Example 29, pE-R-P-R-L-a-H-K-G-P-nle-a-f-OH] returned a half-life at 5000 ng/mL in data set [1] of 2.6 h. Besides, the half-life in data set [2] (setting [4]) and in data set [2] (setting [5]) was 9.42 h throughout.
For `CCCC[C@@H](NC(=O)[C@@H]1CCCN1C(=O)CNC(=O)[C@H](CCCCN)NC(=O)[C@H](Cc1c[nH]cn1)NC(=O)[C@H](NC(=O)[C@H](CC(C)C)NC(=O)[C@H](CCCNC(=N)N)NC(=O)[C@@H]1CCCN1C(=O)[C@H](CCCNC(=N)N)NC(=O)[C@@H]1CCC(=O)N1)C(C)C)C(=O)N[C@H](C)C(=O)N[C@H](Cc1ccccc1)C(=O)O` [Example 61, pE-R-P-R-L-v-H-K-G-P-nle-a-f-OH] ([pGlu]RPRL[dV]HKGP[dNle][dA][dF]-OH), the half-life in data set [2] (setting [5]) is above 16.7 h. The EC50 in data set [3] stood at 7.9 nM.
The corresponding values for `CCCC[C@@H](NC(=O)[C@@H]1CCCN1C(=O)[C@H](CC(=O)O)NC(=O)[C@H](CCCCN)NC(=O)[C@H](Cc1c[nH]cn1)NC(=O)[C@@H](C)NC(=O)[C@H](CC(C)C)NC(=O)[C@H](CCCNC(=N)N)NC(=O)[C@@H]1CCCN1C(=O)[C@H](CCCNC(=N)N)NC(=O)[C@@H]1CCC(=O)N1)C(=O)N[C@H](C)C(=O)N[C@H](Cc1ccccc1)C(=O)O` [Example 62, pE-R-P-R-L-a-H-K-D-P-nle-a-f-OH] ([pGlu]RPRL[dA]HKDP[dNle][dA][dF]-OH) are 7.9 h and 95.9 nM.
The corresponding values for `CCCC[C@@H](NC(=O)[C@@H]1CCCN1C(=O)CNC(=O)[C@H](CCCCN)NC(=O)[C@H](Cc1c[nH]cn1)NC(=O)[C@@H](CCC)NC(=O)[C@H](CC1CCCCC1)NC(=O)[C@H](CCCNC(=N)N)NC(=O)[C@@H]1CCCN1C(=O)[C@H](CCCNC(=N)N)NC(=O)[C@@H]1CCC(=O)N1)C(=O)N[C@H](C)C(=O)N[C@H](Cc1ccccc1)C(=O)O` [Example 63, pE-R-P-R-Cha-nva-H-K-G-P-nle-a-f-OH] ([pGlu]RPR[Cha][dNva]HKGP[dNle][dA][dF]-OH) are 3.75 h and 9.4 nM.
